Experimental data published in ChEMBL document CHEMBL1153286, “Synthesis and biological evaluation of sulfonylurea and thiourea derivatives substituted with benzenesulfonamide groups as potential hypoglycemic agents” (Bioorg Med Chem Lett, 2009).

test system: not listed separately; experiment: Effect on insulin release in rat pancreatic cells at 1 umol/L after 6 hrs by radioimmunoassay; assay type: functional

Row | Structure (SMILES) | Activity [uIU/ml]
1 | Cc1ccc(NC(=S)NS(=O)(=O)c2ccc(CCNS(=O)(=O)c3ccccc3)cc2)cc1 | 27.99
2 | CC(=O)Nc1ccc(S(=O)(=O)NCCc2ccc(S(=O)(=O)NC(=O)NC3CCC(C)CC3)cc2)cc1C (stereo not given) | 23.57
3 | Cc1ccc(S(=O)(=O)NCCc2ccc(S(=O)(=O)NC(=O)NC3CCCCC3)cc2)cc1 | 22.45
4 | O=S(=O)(NCCc1ccc(S(=O)(=O)NC(=S)Nc2ccc(Cl)cc2)cc1)c1ccccc1 | 28.94
5 | O=C(NC1CCCCC1)NS(=O)(=O)c1ccc(CCNS(=O)(=O)c2ccc(Cl)cc2)cc1 | 33.95
6 | COc1ccc(NC(=S)NS(=O)(=O)c2ccc(CCNS(=O)(=O)c3ccc(C)cc3)cc2)cc1 | 24.48
7 | O=C(NC1CCCCC1)NS(=O)(=O)c1ccc(CCNS(=O)(=O)c2ccc(Br)cc2)cc1 | 32.09
8 | COc1ccc(NC(=S)NS(=O)(=O)c2ccc(CCNS(=O)(=O)c3ccc(Cl)cc3)cc2)cc1 | 24.05

test system: not listed separately; experiment: Effect on insulin release in rat pancreatic cells at 10 umol/L after 6 hrs by radioimmunoassay; assay type: functional

Row | Structure (SMILES) | Activity [uIU/ml]
9 | Cc1ccc(NC(=S)NS(=O)(=O)c2ccc(CCNS(=O)(=O)c3ccccc3)cc2)cc1 | 27.71
10 | CC(=O)Nc1ccc(S(=O)(=O)NCCc2ccc(S(=O)(=O)NC(=O)NC3CCC(C)CC3)cc2)cc1C (stereo not given) | 27.67
11 | Cc1ccc(S(=O)(=O)NCCc2ccc(S(=O)(=O)NC(=O)NC3CCCCC3)cc2)cc1 | 22.7
12 | O=S(=O)(NCCc1ccc(S(=O)(=O)NC(=S)Nc2ccc(Cl)cc2)cc1)c1ccccc1 | 32.1
13 | O=C(NC1CCCCC1)NS(=O)(=O)c1ccc(CCNS(=O)(=O)c2ccc(Cl)cc2)cc1 | 41.18
14 | COc1ccc(NC(=S)NS(=O)(=O)c2ccc(CCNS(=O)(=O)c3ccc(C)cc3)cc2)cc1 | 23.5
15 | O=C(NC1CCCCC1)NS(=O)(=O)c1ccc(CCNS(=O)(=O)c2ccc(Br)cc2)cc1 | 45.01
16 | COc1ccc(NC(=S)NS(=O)(=O)c2ccc(CCNS(=O)(=O)c3ccc(Cl)cc3)cc2)cc1 | 24.36

test system: not listed separately; experiment: Effect on insulin release in rat pancreatic cells at 100 umol/L after 6 hrs by radioimmunoassay; assay type: functional

Row | Structure (SMILES) | Activity [uIU/ml]
17 | Cc1ccc(NC(=S)NS(=O)(=O)c2ccc(CCNS(=O)(=O)c3ccccc3)cc2)cc1 | 24.97
18 | CC(=O)Nc1ccc(S(=O)(=O)NCCc2ccc(S(=O)(=O)NC(=O)NC3CCC(C)CC3)cc2)cc1C (stereo not given) | 37.32
19 | Cc1ccc(S(=O)(=O)NCCc2ccc(S(=O)(=O)NC(=O)NC3CCCCC3)cc2)cc1 | 25.93
20 | O=S(=O)(NCCc1ccc(S(=O)(=O)NC(=S)Nc2ccc(Cl)cc2)cc1)c1ccccc1 | 26.06
21 | O=C(NC1CCCCC1)NS(=O)(=O)c1ccc(CCNS(=O)(=O)c2ccc(Cl)cc2)cc1 | 55.03
22 | COc1ccc(NC(=S)NS(=O)(=O)c2ccc(CCNS(=O)(=O)c3ccc(C)cc3)cc2)cc1 | 23.69
23 | O=C(NC1CCCCC1)NS(=O)(=O)c1ccc(CCNS(=O)(=O)c2ccc(Br)cc2)cc1 | 65.98
24 | COc1ccc(NC(=S)NS(=O)(=O)c2ccc(CCNS(=O)(=O)c3ccc(Cl)cc3)cc2)cc1 | 26.09

test system: Adipocyte; experiment: Effect on 2-deoxy-D-[1-3H]glucose transport in Sprague-Dawley rat adipocytes at 1 uM in absence of insulin by liquid scintillation counting; assay type: functional

Row | Structure (SMILES) | Activity [disintegrations/minute]
25 | Cc1ccc(NC(=S)NS(=O)(=O)c2ccc(CCNS(=O)(=O)c3ccccc3)cc2)cc1 | 4377.95
26 | CC(=O)Nc1ccc(S(=O)(=O)NCCc2ccc(S(=O)(=O)NC(=O)NC3CCC(C)CC3)cc2)cc1C (stereo not given) | 4302.19
27 | Cc1ccc(S(=O)(=O)NCCc2ccc(S(=O)(=O)NC(=O)NC3CCCCC3)cc2)cc1 | 4281.3
28 | O=C(NC1CCCCC1)NS(=O)(=O)c1ccc(CCNS(=O)(=O)c2ccc(Cl)cc2)cc1 | 4576.35
29 | COc1ccc(NC(=S)NS(=O)(=O)c2ccc(CCNS(=O)(=O)c3ccc(C)cc3)cc2)cc1 | 4425.16
30 | O=C(NC1CCCCC1)NS(=O)(=O)c1ccc(CCNS(=O)(=O)c2ccc(Br)cc2)cc1 | 4421.72

test system: Adipocyte; experiment: Effect on 2-deoxy-D-[1-3H]glucose transport in Sprague-Dawley rat adipocytes at 1 uM in presence of insulin by liquid scintillation counting; assay type: functional

Row | Structure (SMILES) | Activity [disintegrations/minute]
31 | Cc1ccc(NC(=S)NS(=O)(=O)c2ccc(CCNS(=O)(=O)c3ccccc3)cc2)cc1 | 5319.5
32 | CC(=O)Nc1ccc(S(=O)(=O)NCCc2ccc(S(=O)(=O)NC(=O)NC3CCC(C)CC3)cc2)cc1C (stereo not given) | 6123.02
33 | Cc1ccc(S(=O)(=O)NCCc2ccc(S(=O)(=O)NC(=O)NC3CCCCC3)cc2)cc1 | 5374.21
34 | O=C(NC1CCCCC1)NS(=O)(=O)c1ccc(CCNS(=O)(=O)c2ccc(Cl)cc2)cc1 | 5217.31
35 | COc1ccc(NC(=S)NS(=O)(=O)c2ccc(CCNS(=O)(=O)c3ccc(C)cc3)cc2)cc1 | 5026.34
36 | O=C(NC1CCCCC1)NS(=O)(=O)c1ccc(CCNS(=O)(=O)c2ccc(Br)cc2)cc1 | 5523.89

test system: Adipocyte; experiment: Effect on 2-deoxy-D-[1-3H]glucose transport in Sprague-Dawley rat adipocytes at 10 uM in absence of insulin by liquid scintillation counting; assay type: functional

Row | Structure (SMILES) | Activity [disintegrations/minute]
37 | Cc1ccc(NC(=S)NS(=O)(=O)c2ccc(CCNS(=O)(=O)c3ccccc3)cc2)cc1 | 4385.12
38 | CC(=O)Nc1ccc(S(=O)(=O)NCCc2ccc(S(=O)(=O)NC(=O)NC3CCC(C)CC3)cc2)cc1C (stereo not given) | 4573.8
39 | Cc1ccc(S(=O)(=O)NCCc2ccc(S(=O)(=O)NC(=O)NC3CCCCC3)cc2)cc1 | 4174.59
40 | O=C(NC1CCCCC1)NS(=O)(=O)c1ccc(CCNS(=O)(=O)c2ccc(Cl)cc2)cc1 | 5878.83
41 | COc1ccc(NC(=S)NS(=O)(=O)c2ccc(CCNS(=O)(=O)c3ccc(C)cc3)cc2)cc1 | 4381.35
42 | O=C(NC1CCCCC1)NS(=O)(=O)c1ccc(CCNS(=O)(=O)c2ccc(Br)cc2)cc1 | 4861.54

test system: Adipocyte; experiment: Effect on 2-deoxy-D-[1-3H]glucose transport in Sprague-Dawley rat adipocytes at 10 uM in presence of insulin by liquid scintillation counting; assay type: functional

Row | Structure (SMILES) | Activity [disintegrations/minute]
43 | Cc1ccc(NC(=S)NS(=O)(=O)c2ccc(CCNS(=O)(=O)c3ccccc3)cc2)cc1 | 5644.89
44 | CC(=O)Nc1ccc(S(=O)(=O)NCCc2ccc(S(=O)(=O)NC(=O)NC3CCC(C)CC3)cc2)cc1C (stereo not given) | 6516.9
45 | Cc1ccc(S(=O)(=O)NCCc2ccc(S(=O)(=O)NC(=O)NC3CCCCC3)cc2)cc1 | 5533.15
46 | O=C(NC1CCCCC1)NS(=O)(=O)c1ccc(CCNS(=O)(=O)c2ccc(Cl)cc2)cc1 | 5933.89
47 | COc1ccc(NC(=S)NS(=O)(=O)c2ccc(CCNS(=O)(=O)c3ccc(C)cc3)cc2)cc1 | 5377.15
48 | O=C(NC1CCCCC1)NS(=O)(=O)c1ccc(CCNS(=O)(=O)c2ccc(Br)cc2)cc1 | 6002.46

test system: Adipocyte; experiment: Effect on 2-deoxy-D-[1-3H]glucose transport in Sprague-Dawley rat adipocytes at 100 uM in absence of insulin by liquid scintillation counting; assay type: functional

Row | Structure (SMILES) | Activity [disintegrations/minute]
49 | Cc1ccc(NC(=S)NS(=O)(=O)c2ccc(CCNS(=O)(=O)c3ccccc3)cc2)cc1 | 4663.52
50 | CC(=O)Nc1ccc(S(=O)(=O)NCCc2ccc(S(=O)(=O)NC(=O)NC3CCC(C)CC3)cc2)cc1C (stereo not given) | 5207.81
51 | Cc1ccc(S(=O)(=O)NCCc2ccc(S(=O)(=O)NC(=O)NC3CCCCC3)cc2)cc1 | 4458.36
52 | O=C(NC1CCCCC1)NS(=O)(=O)c1ccc(CCNS(=O)(=O)c2ccc(Cl)cc2)cc1 | 6632.7
53 | COc1ccc(NC(=S)NS(=O)(=O)c2ccc(CCNS(=O)(=O)c3ccc(C)cc3)cc2)cc1 | 4550.21
54 | O=C(NC1CCCCC1)NS(=O)(=O)c1ccc(CCNS(=O)(=O)c2ccc(Br)cc2)cc1 | 6556.61

test system: Adipocyte; experiment: Effect on 2-deoxy-D-[1-3H]glucose transport in Sprague-Dawley rat adipocytes at 100 uM in presence of insulin by liquid scintillation counting; assay type: functional

Row | Structure (SMILES) | Activity [disintegrations/minute]
55 | Cc1ccc(NC(=S)NS(=O)(=O)c2ccc(CCNS(=O)(=O)c3ccccc3)cc2)cc1 | 5761.23
56 | CC(=O)Nc1ccc(S(=O)(=O)NCCc2ccc(S(=O)(=O)NC(=O)NC3CCC(C)CC3)cc2)cc1C (stereo not given) | 7244.87
57 | Cc1ccc(S(=O)(=O)NCCc2ccc(S(=O)(=O)NC(=O)NC3CCCCC3)cc2)cc1 | 5297.11
58 | O=C(NC1CCCCC1)NS(=O)(=O)c1ccc(CCNS(=O)(=O)c2ccc(Cl)cc2)cc1 | 6521.12
59 | COc1ccc(NC(=S)NS(=O)(=O)c2ccc(CCNS(=O)(=O)c3ccc(C)cc3)cc2)cc1 | 5573.24
60 | O=C(NC1CCCCC1)NS(=O)(=O)c1ccc(CCNS(=O)(=O)c2ccc(Br)cc2)cc1 | 7896.14
